One compound from patent US20250161245A1, “A MIXTURE OF UREA, BIURET AND N-CONTAINING BY-PRODUCTS CREATED DURING BIURET PRODUCTION AS A DIETARY NON-PROTEIN NITROGEN-SOURCE FOR RUMINANTS AND USES THEREOF” (Yara International ASA, priority 2022, published 2025) can be followed below.

Assay [1] relates to ruminal fluid. The assay is described as follows: in vitro methane production, batch culture (Example 4). The class given is cell-based, Angus crossbred steers. The settings on record: corn silage-based diet, 24 hours incubation. How it is done: The amount of methane produced was determined by measuring total gas production and the contribution of methane to it. The production of gas was recorded using an Ankom Gas Monitoring System from Ankom Technologies. This system was adapted to 500 ml bottles during the entire fermentation process. The kinetics of the production was fitted to a Gompertz model to determine the rate of the total maximal gas production (M), fractional rate of gas produced (kf) and lag phase (L). A gas subsample was analyzed to measure methane concentration and calculate the total methane production during the fermentation. The concentration of methane was determined using a gas chromatograph Agilent 7820 GC from Agilent Technologies with flame ionization and a capillary column (Plot Fused Silica 25 m×0.32 mm, coating Molsieve 5A, Varian CP 7536 from Varian Inc.).

Assay [2] has as its system ruminal fluid. The assay is described as follows: in vitro batch culture incubations: VFA, ammonia-N, pH (Example 4). It is filed as cell-based, Angus crossbred steers. The settings on record: corn silage-based diet. How it is done: In this example, an in vitro assay was performed using batch culture incubations, aiming to simulate rumen fermentation.
Two ruminally cannulated Angus crossbred steers (808.8±36.3 kg body weight) were used as ruminal fluid donors for the in vitro batch culture incubations. The steers were fed a corn silage and gin trash diet (70% and 30% on a dry matter basis, respectively) ad libitum at least 35 days before collecting ruminal fluid to perform the in vitro incubations. Each steer received a NPN-mixture equivalent to 100 g of urea per day comprised of an equal amount of N from the different NPN sources to adapt the rumen microbial community. Thus, each steer was fed daily 33 g of urea (46 wt. % N) or 37 g of a urea-biuret mixture according to the present disclosure (UB) comprising 41 wt. % N. These amounts were mixed in with the feed diet every two days.
The in vitro batch culture incubations were conducted as a randomized complete block design using 70 wt. % corn silage and 30 wt. % gin trash on a dry matter basis conserving the diet characteristics used during the animal adaptation period. The treatments were designed to be isonitrogenous (=having the same amount of dietary nitrogen) and equivalent to 1 wt. % of urea inclusion. The NPN treatments were consequently as follows: • Control without NPN-supplementation (“control”); • 100 wt % urea (Rumisan®) (“urea”); • 100 wt % of a urea/biuret mixture according to the present application (“UB”).
The in vitro incubations were conducted on three separate days (replicates). A representative sample of digesta was collected from different places in the rumen of ruminally cannulated steers and strained through 4 layers of cheesecloth, placed in pre-warmed thermos containers, and transported to the laboratory within 30 minutes after the collection. In the laboratory, the ruminal fluid from the two steers was maintained under constant CO2-flux and was combined in equal proportions. This combined ruminal fluid was mixed with McDougall's buffer (McDougall, 1948) with and without 0.077 g/liter of 10 wt. % ammonium sulfate enriched with ^15N in relation 1:4, and it was used as an inoculum. Two bottles of 500 ml fitted with a side arm and a rubber septum were incubated per treatment. The bottles contained 5.6 g of substrate dry matter and 400 ml of ^15N enriched inoculum, and were incubated for 24 hours at 39° C. with an agitation of 60 rpm to monitor gas production kinetics using an Ankom Gas Monitoring System from Ankom Technologies, Fairport, New York. Also, one 500-ml bottle without 15N enriched inoculum was incubated to determine the basal ^15N enrichment. At 12 hours of incubation, two samples of 10 ml of rumen fluid were collected from each bottle through the septa port using a 20-ml syringe. These samples were acidified by adding 10 μl of a 20 vol/vol % of H2SO4-solution to each 10-ml sample, and frozen at minus 20° C. until further analysis. At the end of the 24 hours incubation, the final pH was recorded, the bottles were placed on ice to prevent further microbial fermentation and two 10-ml samples were collected and acidified by adding 20 μl of a 20 vol/vol % of H2SO4-solution and were frozen at minus 20° C. until further analysis. The remaining fermentation content was thereafter agitated at 60 rpm for 30 seconds and divided into two subsamples. […]

The mark [3] stands for this setting: 12 hours of incubation, equivalent to 1 wt. % urea.

`NC(N)=O` [Urea, urea]: in the assay with ruminal fluid [1], the “methane production per g organic matter digested” value amounted to 6.86 mM/g OMd and the “methane production per g organic matter incubated” value came out at 1.23 mM/g OMi. For the same compound, in the assay with ruminal fluid [2] (setting [3]), the Ammonia-N is given as 2.74 mM and the “Total VFA” value is 31.77 mM. In addition, in the assay on ruminal fluid [2] (24 hours of incubation), the Ammonia-N worked out at 6.55 mM, the “Total VFA” value is recorded as 40.96 mM and the pH is 6.38.
